Data published in paper PMC11839852, “Preclinical comparison of (radio)lanthanides using mass spectrometry and nuclear imaging techniques: biodistribution of lanthanide-based tumor-targeting agents and lanthanides in ionic form” (European Journal of Nuclear Medicine and Molecular Imaging, 2024).
Where two headings read alike, the source gives them in different places. Marks after values point to notes of the source that are not given here.

Experiments:
[1] = tested on: PC-3 PIP/flu tumor-bearing mice; conditions: Ln-PSMA-617; for Tissue uptake: Blood / Tissue uptake: Bone / Tissue uptake: Heart / Tissue uptake: Intestines / Tissue uptake: Kidneys / Tissue uptake: Liver / Tissue uptake: Lung / Tissue uptake: Muscle / Tissue uptake: Salivary glands / Tissue uptake: Spleen / Tissue uptake: Stomach: PC-3 PIP/flu tumor-bearing mice; for Tissue uptake: PC-3 flu tumor: PSMA-negative xenograft; for Tissue uptake: PC-3 PIP tumor: PSMA-positive xenograft; for PC-3 PIP tumor-to-background organ ratios: Tumor-to-blood / PC-3 PIP tumor-to-background organ ratios: Tumor-to-liver: estimated ratios (organ <0.5% ID/g)
[2] = tested on: non-tumor-bearing immunocompetent FVB mice; test: Biodistribution of lanthanide chloride salts LnCl3 (multiplexed ICP-MS); type: in vivo; conditions: for Tissue uptake: Blood / Tissue uptake: Bone / Tissue uptake: Brain / Tissue uptake: Heart / Tissue uptake: Intestines / Tissue uptake: Kidneys / Tissue uptake: Liver / Tissue uptake: Lung / Tissue uptake: Muscle / Tissue uptake: Pancreas / Tissue uptake: Salivary glands / Tissue uptake: Spleen / Tissue uptake: Stomach: non-tumor-bearing mice
[3] = 24 h p.i., estimated ratios (organ <0.5% ID/g)
[4] = 96 h p.i., estimated ratios (organ <0.5% ID/g)

O=C([O-])CN1CCN(CC(=O)[O-])CCN(CC(=O)NCC2CCC(C(=O)NC(Cc3ccc4ccccc4c3)C(=O)NCCCCC(NC(=O)NC(CCC(=O)O)C(=O)O)C(=O)O)CC2)CCN(CC(=O)[O-])CC1.[Lu+3] (stereo not drawn) [[^175Lu]Lu-PSMA-617]
PC-3 PIP tumor-to-background organ ratios: Tumor-to-kidney ([1]; 1 h p.i.): 2.7 ± 0.8
Tissue uptake: Blood ([1]; 1 h p.i.): <0.5 % ID/g
Tissue uptake: Bone ([1]; 1 h p.i.): <0.5 % ID/g
Tissue uptake: Heart ([1]; 1 h p.i.): <0.5 % ID/g
Tissue uptake: Intestines ([1]; 1 h p.i.): <0.5 % ID/g
Tissue uptake: Kidneys ([1]; 1 h p.i.): 10 ± 4 % ID/g
Tissue uptake: Liver ([1]; 1 h p.i.): <0.5 % ID/g
Tissue uptake: Lung ([1]; 1 h p.i.): <0.5 % ID/g
Tissue uptake: Muscle ([1]; 1 h p.i.): <0.5 % ID/g
Tissue uptake: Salivary glands ([1]; 1 h p.i.): <0.5 % ID/g
Tissue uptake: Spleen ([1]; 1 h p.i.): 0.64 ± 0.48 % ID/g
Tissue uptake: Stomach ([1]; 1 h p.i.): 0.56 ± 0.19 % ID/g
Tissue uptake: PC-3 flu tumor ([1]; 1 h p.i.): <0.5 % ID/g
Tissue uptake: PC-3 PIP tumor ([1]; 1 h p.i.): 25 ± 3 % ID/g
PC-3 PIP tumor-to-background organ ratios: Tumor-to-blood ([1]; 1 h p.i.): >51^*
PC-3 PIP tumor-to-background organ ratios: Tumor-to-liver ([1]; 1 h p.i.): >51^*
PC-3 PIP tumor-to-background organ ratios: Tumor-to-kidney ([1]; 4 h p.i.): 18 ± 3
Tissue uptake: Blood ([1]; 4 h p.i.): <0.5 % ID/g
Tissue uptake: Bone ([1]; 4 h p.i.): <0.5 % ID/g
Tissue uptake: Heart ([1]; 4 h p.i.): <0.5 % ID/g
Tissue uptake: Intestines ([1]; 4 h p.i.): <0.5 % ID/g
Tissue uptake: Kidneys ([1]; 4 h p.i.): 1.4 ± 0.4 % ID/g
Tissue uptake: Liver ([1]; 4 h p.i.): <0.5 % ID/g
Tissue uptake: Lung ([1]; 4 h p.i.): <0.5 % ID/g
Tissue uptake: Muscle ([1]; 4 h p.i.): <0.5 % ID/g
Tissue uptake: Salivary glands ([1]; 4 h p.i.): <0.5 % ID/g
Tissue uptake: Spleen ([1]; 4 h p.i.): <0.5 % ID/g
Tissue uptake: Stomach ([1]; 4 h p.i.): <0.5 % ID/g
Tissue uptake: PC-3 flu tumor ([1]; 4 h p.i.): <0.5 % ID/g
Tissue uptake: PC-3 PIP tumor ([1]; 4 h p.i.): 23 ± 3 % ID/g
PC-3 PIP tumor-to-background organ ratios: Tumor-to-blood ([1]; 4 h p.i.): >47^*
PC-3 PIP tumor-to-background organ ratios: Tumor-to-liver ([1]; 4 h p.i.): >47^*

[Cl][Lu]([Cl])[Cl] [[^175Lu]LuCl3]
Organ ratios: Blood-to-bone ([2]; 1 h p.i.): 0.38 ± 0.23
Organ ratios: Blood-to-liver ([2]; 1 h p.i.): 0.61 ± 0.35
Organ ratios: Liver-to-bone ([2]; 1 h p.i.): 0.64 ± 0.13
Tissue uptake: Blood ([2]; 1 h p.i.): 6.4 ± 2.7 % ID/g
Tissue uptake: Bone ([2]; 1 h p.i.): 18 ± 3 % ID/g
Tissue uptake: Brain ([2]; 1 h p.i.): <0.5 % ID/g
Tissue uptake: Heart ([2]; 1 h p.i.): 3.6 ± 1.5 % ID/g
Tissue uptake: Intestines ([2]; 1 h p.i.): 3.2 ± 1.1 % ID/g
Tissue uptake: Kidneys ([2]; 1 h p.i.): 7.3 ± 1.7 % ID/g
Tissue uptake: Liver ([2]; 1 h p.i.): 11 ± 3 % ID/g
Tissue uptake: Lung ([2]; 1 h p.i.): 5.6 ± 2.2 % ID/g
Tissue uptake: Muscle ([2]; 1 h p.i.): 1.5 ± 0.6 % ID/g
Tissue uptake: Pancreas ([2]; 1 h p.i.): 2.6 ± 0.8 % ID/g
Tissue uptake: Salivary glands ([2]; 1 h p.i.): 2.6 ± 0.9 % ID/g
Tissue uptake: Spleen ([2]; 1 h p.i.): 3.8 ± 0.5 % ID/g
Tissue uptake: Stomach ([2]; 1 h p.i.): 5.8 ± 2.1 % ID/g
Organ ratios: Liver-to-bone ([2]; 24 h p.i.): 0.49 ± 0.19
Organ ratios: Blood-to-bone [2, 3]: <0.02^*
Organ ratios: Blood-to-liver [2, 3]: <0.05^*
Tissue uptake: Blood ([2]; 24 h p.i.): <0.5 % ID/g
Tissue uptake: Bone ([2]; 24 h p.i.): 25 ± 5 % ID/g
Tissue uptake: Brain ([2]; 24 h p.i.): <0.5 % ID/g
Tissue uptake: Heart ([2]; 24 h p.i.): 0.54 ± 0.06 % ID/g
Tissue uptake: Intestines ([2]; 24 h p.i.): 0.61 ± 0.02 % ID/g
Tissue uptake: Kidneys ([2]; 24 h p.i.): 3.7 ± 1.0 % ID/g
Tissue uptake: Lung ([2]; 24 h p.i.): 0.88 ± 0.13 % ID/g
Tissue uptake: Muscle ([2]; 24 h p.i.): <0.5 % ID/g
Tissue uptake: Pancreas ([2]; 24 h p.i.): <0.5 % ID/g
Tissue uptake: Salivary glands ([2]; 24 h p.i.): 0.55 ± 0.17 % ID/g
Tissue uptake: Spleen ([2]; 24 h p.i.): 3.5 ± 0.9 % ID/g
Tissue uptake: Stomach ([2]; 24 h p.i.): 1.8 ± 0.3 % ID/g
Tissue uptake: Liver ([2]; 24 h p.i., listed as lutetium): 12 ± 3 % ID/g
Tissue uptake: Liver ([2]; 24 h p.i., listed as natLu): ~ 12 % ID/g
Organ ratios: Liver-to-bone ([2]; 96 h p.i.): 0.14 ± 0.04
Organ ratios: Blood-to-bone [2, 4]: <0.01^*
Organ ratios: Blood-to-liver [2, 4]: <0.11^*
Tissue uptake: Blood ([2]; 96 h p.i.): <0.5 % ID/g
Tissue uptake: Bone ([2]; 96 h p.i.): 35 ± 4 % ID/g
Tissue uptake: Brain ([2]; 96 h p.i.): <0.5 % ID/g
Tissue uptake: Heart ([2]; 96 h p.i.): 0.89 ± 0.25 % ID/g
Tissue uptake: Intestines ([2]; 96 h p.i.): 0.54 ± 0.14 % ID/g
Tissue uptake: Kidneys ([2]; 96 h p.i.): 2.7 ± 0.2 % ID/g
Tissue uptake: Liver ([2]; 96 h p.i.): 4.8 ± 0.9 % ID/g
Tissue uptake: Lung ([2]; 96 h p.i.): 1.1 ± 0.2 % ID/g
Tissue uptake: Muscle ([2]; 96 h p.i.): <0.5 % ID/g
Tissue uptake: Pancreas ([2]; 96 h p.i.): <0.5 % ID/g
Tissue uptake: Salivary glands ([2]; 96 h p.i.): 0.50 ± 0.06 % ID/g
Tissue uptake: Spleen ([2]; 96 h p.i.): 2.3 ± 0.2 % ID/g
Tissue uptake: Stomach ([2]; 96 h p.i.): 2.5 ± 0.2 % ID/g
